In patent US20230100838A1 (Revolution Medicines, Inc., priority 2019, published 2023):

Legend:
Type in all cases: binding
[1] = target: T1, GDP-loaded K-Ras (1-169) C51S, C80L, C118S (Homo sapiens, UniProt P01116, C118S/C51S/C80L); experiment: K-Ras WT (GDP) cross-linking assay (conjugate formation, TOF mass spectrometry); set-up: key: 0: No observed x-linking; +: 0 < x ≤ 20; ++: 20 < x ≤ 40; +++: 40 < x ≤ 100; settings: percent covalently modified K-Ras by MS, room temperature, typical compound conc. 2, 10, 25 μM, endpoints 1 and 24 h
T1 construct: GDP-loaded K-Ras (1-169) C51S, C80L, C118S
In short: (§1)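 5 μM protein (final, from 50 μM) in HEPES/NaCl/MgCl2 buffer pH 7.4 with compound typically at 2, 10 and 25 μM, room temperature, 1 and 24 h endpoints; formic acid quench. Intact-protein LC–TOF MS; percent modification is covalent adduct peak height over total K-Ras peak height.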

[2] = target: T2, GDP-loaded K-Ras (1-169) G12D, C51S, C80L, C118S (Homo sapiens, UniProt P01116, C118S/C51S/C80L/G12D); experiment: K-Ras G12D(GDP) cross-linking assay (conjugate formation, TOF mass spectrometry); set-up: key: 0: No observed x-linking; +: 0 < x ≤ 20; ++: 20 < x ≤ 40; +++: 40 < x ≤ 100; settings: percent covalently modified K-Ras by MS, room temperature, typical compound conc. 2, 10, 25 μM, endpoints 1 and 24 h
T2 construct: GDP-loaded K-Ras (1-169) G12D, C51S, C80L, C118S
In short: as §1

K-Ras G12S = K-Ras G12S (Homo sapiens, UniProt P01116, G12S); experiment: K-Ras G12S cross-linking assay (comparable procedure, conjugate formation, TOF mass spectrometry); set-up: key: 0: No observed x-linking
Description: Protocol: K-Ras G12D(GDP) Cross-Linking Assay
Note: while the following protocol outlines the procedure for K-Ras G12D(GDP), a person of skill in the art may substitute other Ras proteins, and may also substitute a non-hydrolyzable GTP analog for GDP to study GTP bound Ras protein.
GDP-loaded K-Ras (1-169) G12D, C51S, C80L, C118S and GDP-loaded K-Ras (1-169) C51S, C80L, C118S were adjusted to 50 μM in K-Ras assay buffer (12.5 mM HEPES, 75 mM NaCl and 1 mM MgCl2 at pH 7.4). A 5 μL aliquot of each protein solution was added to each well of a 96-well microplate containing 40 μL of assay buffer. Initial compound stocks were prepared in DMSO at 100 times their final assay concentration. Compounds were then diluted 10-fold into K-Ras assay buffer to 10 times their final concentration. A 5 μL aliquot of each diluted compound solution was added to each protein solution in the 96-well microplate to initiate the reaction, which then proceeded at room temperature. Typical final compound concentrations were 2, 10, and 25 μM. At each time point, the reactions were analyzed immediately or quenched with 5 μL of a 5% formic acid solution and kept at 4° C. until analysis. Typical assay endpoints were 1 and 24 h.
Data collection took place on an Agilent 6230 TOF Mass Spectrometer. Complete reactions were injected onto a C4 reverse-phase column to separate protein from buffer components prior to entering the mass spectrometer. The proteins were eluted from the column by increasing acetonitrile fraction in the mobile phase and fed directly into the mass analyzer. Initial analysis of raw data took place in Agilent MassHunter BioConfirm software and consisted of deconvolution of multiple protein charge states with the maximum entropy algorithm, with a mass step of 1 Da. The heights of all deconvoluted protein masses were exported for further data analysis. The percent modification of each protein was then determined by calculating the peak height of the covalently modified K-Ras species as a percentage of the sum total of K-Ras protein peak height.

[3] = Table 4, percent covalently modified K-Ras by MS
[4] = Table 5, percent covalently modified K-Ras by MS

Row | Structure (SMILES) | WT x-linking (%) ([1]; Table 4) | G12D x-linking (%) ([2]; Table 4) | G12S x-linking (%) (K-Ras G12S; [3]) | WT x-linking (%) ([1]; Table 5) | G12D x-linking (%) ([2]; Table 5) | G12S x-linking (%) (K-Ras G12S; [4])
1 | Cc1cccc2cccc(N3CCc4c(nc(OC[C@@H]5CCCN5C)nc4NCCN(C)C(=O)NCCCl)C3)c12 [Example 37, (S)-3-(2-chloroethyl)-1-methyl-1-(2-((7-(8-methylnaphthalen-1-yl)-2-((1-methylpyrrolidin-2-yl)methoxy)-5,6,7,8-tetrahydropyrido[3,4-d]pyrimidin-4-yl)amino)ethyl)urea] | 0 | 0 | 0 | – | – | –
2 | Cc1cccc2cccc(N3CCc4c(nc(OC[C@@H]5CCCN5C)nc4N4CCC(N=C=Nc5ccccc5)CC4)C3)c12 [Example 48, N-(1-(7-(8-methylnaphthalen-1-yl)-2-(((S)-1-methylpyrrolidin-2-yl)methoxy)-5,6,7,8-tetrahydropyrido[3,4-d]pyrimidin-4-yl)piperidin-4-yl)-N-phenylmethanediimine] | + (0 < x ≤ 20) | + (0 < x ≤ 20) | + (0 < x ≤ 10) | – | – | –
3 | CN=C=NC1CCN(c2nc(OC[C@@H]3CCCN3C)nc3c2CCN(c2cccc4cccc(C)c24)C3)CC1 [Example 21, N-methyl-N-(1-(7-(8-methylnaphthalen-1-yl)-2-(((S)-1-methylpyrrolidin-2-yl)methoxy)-5,6,7,8-tetrahydropyrido[3,4-d]pyrimidin-4-yl)piperidin-4-yl)methanediimine] | ++ (20 < x ≤ 100) | +++ (40 < x ≤ 100) | ++ (10 < x ≤ 100) | – | – | –
4 | COCCN=C=NC1CCN(c2nc(=O)n(-c3c(C)ccnc3C(C)C)c3nc(-c4ccccc4F)c(F)cc23)CC1 [Example 54, 6-fluoro-7-(2-fluorophenyl)-1-(2-isopropyl-4-methylpyridin-3-yl)-4-(4-((((2-methoxyethyl)imino)methylene)amino)piperidin-1-yl)pyrido[2,3-d]pyrimidin-2(1H)-one] | + (0 < x ≤ 20) | + (0 < x ≤ 20) | + (0 < x ≤ 10) | – | – | –
5 | CN(CCN=C=Nc1ccccc1)c1ncnc2c(F)c(-c3ccccc3F)c(Cl)cc12 [Example 7, 6-chloro-8-fluoro-7-(2-fluorophenyl)-N-methyl-N-(2-(((phenylimino)methylene)amino)ethyl)quinazolin-4-amine] | + (0 < x ≤ 20) | + (0 < x ≤ 20) | + (0 < x ≤ 10) | – | – | –
6 | Cc1cccc2cccc(N3CCc4c(nc(OC[C@@H]5CCCN5C)nc4N4CCC(N(C)C(=O)C5CN5C)CC4)C3)c12 (stereo partly drawn) [Example 45, N,1-dimethyl-N-(1-(7-(8-methylnaphthalen-1-yl)-2-(((S)-1-methylpyrrolidin-2-yl)methoxy)-5,6,7,8-tetrahydropyrido[3,4-d]pyrimidin-4-yl)piperidin-4-yl)aziridine-2-carboxamide] | + (0 < x ≤ 20) | + (0 < x ≤ 20) | + (0 < x ≤ 10) | – | – | –
7 | Fc1ccccc1-c1c(Cl)cc2c(N3CCC(NC4=NCCO4)CC3)ncnc2c1F [Example 13, N-(1-(6-chloro-8-fluoro-7-(2-fluorophenyl)quinazolin-4-yl)piperidin-4-yl)-4,5-dihydrooxazol-2-amine] | + (0 < x ≤ 20) | + (0 < x ≤ 20) | + (0 < x ≤ 10) | – | – | –
8 | COCCN=C=NCC1CCN(c2nc(=O)n(-c3c(C)ccnc3C(C)C)c3nc(-c4ccccc4F)c(F)cc23)CC1 [Example 70, 6-fluoro-7-(2-fluorophenyl)-1-(2-isopropyl-4-methylpyridin-3-yl)-4-(4-(((((2-methoxyethyl)imino)methylene)amino)methyl)piperidin-1-yl)pyrido[2,3-d]pyrimidin-2(1H)-one] | – | – | – | ++ (20 < x ≤ 100) | ++ (20 < x ≤ 40) | ++ (10 < x ≤ 100)
9 | COCC1(N=C=NC2CCN(c3nc(OC[C@@H]4CCCN4C)nc4c3CCN(c3cccc5cccc(C)c35)C4)CC2)CC1 [Example 80, N-(1-(methoxymethyl)cyclopropyl)-N-(1-(7-(8-methylnaphthalen-1-yl)-2-(((S)-1-methylpyrrolidin-2-yl)methoxy)-5,6,7,8-tetrahydropyrido[3,4-d]pyrimidin-4-yl)piperidin-4-yl)methanediimine] | – | – | – | + (0 < x ≤ 20) | ++ (20 < x ≤ 40) | ++ (10 < x ≤ 100)
10 | Cc1cccc2cccc(N3CCc4c(nc(OC[C@@H]5CCCN5C)nc4NCCNC4=NCCO4)C3)c12 [Example 40, (S)—N^1-(4,5-dihydrooxazol-2-yl)-N^2-(7-(8-methylnaphthalen-1-yl)-2-((1-methylpyrrolidin-2-yl)methoxy)-5,6,7,8-tetrahydropyrido[3,4-d]pyrimidin-4-yl)ethane-1,2-diamine] | + (0 < x ≤ 20) | + (0 < x ≤ 20) | + (0 < x ≤ 10) | – | – | –

Further lines, results first:

Row | WT x-linking (%) ([1]; Table 4) | G12D x-linking (%) ([2]; Table 4) | G12S x-linking (%) (K-Ras G12S; [3]) | WT x-linking (%) ([1]; Table 5) | G12D x-linking (%) ([2]; Table 5) | G12S x-linking (%) (K-Ras G12S; [4]) | Structure (SMILES)
11 | – | – | – | + (0 < x ≤ 20) | + (0 < x ≤ 20) | + (0 < x ≤ 10) | Cc1ccnc(C(C)C)c1-n1c(=O)nc(N2CCC(CN=C=NCc3ccccc3)CC2)c2cc(F)c(-c3ccccc3F)nc21 [Example 69, 4-(4-((((benzylimino)methylene)amino)methyl)piperidin-1-yl)-6-fluoro-7-(2-fluorophenyl)-1-(2-isopropyl-4-methylpyridin-3-yl)pyrido[2,3-d]pyrimidin-2(1H)-one]
12 | – | – | – | + (0 < x ≤ 20) | + (0 < x ≤ 20) | + (0 < x ≤ 10) | Cc1cccc2cccc(N3CCc4c(nc(OC[C@@H]5CCCN5C)nc4N4CCC(N=C=NCCc5cccs5)CC4)C3)c12 [Example 95, N-(1-(7-(8-methylnaphthalen-1-yl)-2-(((S)-1-methylpyrrolidin-2-yl)methoxy)-5,6,7,8-tetrahydropyrido[3,4-d]pyrimidin-4-yl)piperidin-4-yl)-N-(2-(thiophen-2-yl)ethyl)methanediimine]
13 | – | – | – | ++ (20 < x ≤ 100) | +++ (40 < x ≤ 100) | ++ (10 < x ≤ 100) | COCCN=C=N[C@H]1CCN(c2nc(OC[C@@H]3CCCN3C)nc3c2CCN(c2cccc4cccc(C)c24)C3)C1 [Example 74, N-(2-methoxyethyl)-N—((S)-1-(7-(8-methylnaphthalen-1-yl)-2-(((S)-1-methylpyrrolidin-2-yl)methoxy)-5,6,7,8-tetrahydropyrido[3,4-d]pyrimidin-4-yl)pyrrolidin-3-yl)methanediimine]
14 | 0 | 0 | 0 | – | – | – | COc1ccc(N=C=NC2CCN(c3ncnc4c(F)c(-c5ccccc5F)c(Cl)cc34)CC2)cc1 [Example 5, N-(1-(6-chloro-8-fluoro-7-(2-fluorophenyl)quinazolin-4-yl)piperidin-4-yl)-N-(4-methoxyphenyl)methanediimine]
15 | 0 | 0 | 0 | – | – | – | O=C(C1CCN(c2ncnc3c(F)c(-c4ccccc4F)c(Cl)cc23)CC1)C(F)(F)F [Example 18, 1-(1-(6-chloro-8-fluoro-7-(2-fluorophenyl)quinazolin-4-yl)piperidin-4-yl)-2,2,2-trifluoroethan-1-one]
16 | – | – | – | ++ (20 < x ≤ 100) | +++ (40 < x ≤ 100) | ++ (10 < x ≤ 100) | Cc1cccc2cccc(N3CCc4c(nc(OC[C@@H]5CCCN5C)nc4N4CCC(N=C=NCCn5ccnc5)CC4)C3)c12 [Example 87, N-(2-(1H-imidazol-1-yl)ethyl)-N-(1-(7-(8-methylnaphthalen-1-yl)-2-(((S)-1-methylpyrrolidin-2-yl)methoxy)-5,6,7,8-tetrahydropyrido[3,4-d]pyrimidin-4-yl)piperidin-4-yl)methanediimine]
